# Results: the METLIN SMRT retention time set (Domingo-Almenara et al. 2019)
# Test: gradient 5% acetonitrile 3 min, to 50% in 2 min, to 85% in 15 min, held 3 min, 100 µL/min
# Conditions: column: Zorbax Extend-C18 2.1 x 50 mm; eluents: water / acetonitrile, 0.1% formic acid
# How it was run: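 Pure standards were run in mixtures of ~100 molecules by HPLC coupled to a quadrupole time-of-flight mass spectrometer. The column was a Zorbax Extend-C18 (2.1 × 50 mm, 1.8 μm) at 100 μL/min, with water and acetonitrile each containing 0.1% formic acid, in positive and negative ionization mode. Dead and dwell volumes were 40 μL and 900 μL. Retention time was taken from computationally picked adduct peaks, each manually inspected, with data collected over 3 months.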
row,SMILES,RP-LC retention time
1,C=CCN1C(=O)COc2ccc(-c3csc(NC(=O)CCC)n3)cc21,894 s
2,Cc1cccc(CNC(=O)C2CCN(Cc3cn(C)c4ccc(Cl)cc34)CC2)c1,757 s
3,O=C(Cn1ccc2ccn(Cc3cccnc3)c2c1=O)N1CCCC1,578 s
4,CC1CCN(c2nc3c(c(=O)n(C)c(=O)n3C)n2Cc2ccccc2F)CC1,1090 s
5,COc1ccc(C2=C(C)C(N3CCC(C(=O)NC4CCCC4)CC3)=NS2(=O)=O)cc1,780 s
6,Cc1ccc(C2CC(=O)N(c3ccc(F)cc3F)C(=O)C2)cc1,987 s
7,CCCS(=O)(=O)N1CC(=O)N(c2cccc(Cl)c2C)C(C)(C(=O)NC2CCCCC2)C1 (centres undefined),1010 s
8,O=C1NCCCCCCN(C(=O)c2ccsc2)[C@H]2CCCC[C@@H]12,786 s
9,COc1cc(OC)cc(C(=O)NCC(O)Cc2ccccc2)c1 (centres undefined),706 s
10,O=C(Cc1ccc(F)cc1)N1CCN(c2cc(-c3cccs3)[nH]n2)CC1,782 s
11,CC1=C(c2ccc(C)cc2)S(=O)(=O)N=C1N1CCCN(C(=O)c2ccco2)CC1,653 s
12,CC(C)n1c(=O)c(NCc2cccc(C(F)(F)F)c2)nc2ccncc21,725 s
13,Cc1cc(-c2nnc(-c3ccco3)o2)c(C)n1CC(=O)Nc1cccc(Cl)c1,920 s
14,CCCNc1nc(C(=O)OCC)nc2ccccc12,626 s
15,CCNc1cc(N2CCC(CCC(=O)N3CCN(C(C)C)CC3)CC2)ncn1,524 s
16,NC(=O)COc1c(F)cc(SCCNS(=O)(=O)c2ccccc2)cc1F,847 s
17,CCn1ccc2sc(C)c(C(=O)NCc3cccc(Br)c3)c2c1=O,918 s
18,CCS(=O)(=O)c1ccc2c(c1)N(Cc1nc(-c3ccc(OC(C)C)cc3)no1)C(=O)CO2,991 s
19,Cn1c(C(=O)N2CCN(c3ncccn3)CC2)cc2c(-c3cccs3)nn(-c3ccccc3)c21,1030 s
20,Cc1ccc(NC(=O)Cn2nc3n(c2=O)CCCC3)cc1,640 s

row,SMILES,RP-LC retention time
1,CCCc1ccc(S(=O)(=O)N2CCC3(CC2)NCCCN=C3NC2CCCC2)cc1,857 s
2,COc1ccc2c(c1)-c1nc(NC(=O)c3cccc(Br)c3)sc1CC2,1230 s
3,Cc1ccc(NC(=O)C2CCN(S(=O)(=O)c3ccc4c(c3)CCCC(=O)N4)CC2)c(C)c1,774 s
4,CCOC(=O)N1CCN(c2cc(C(=O)O)c3cc(NC(=O)c4cccc(C)c4)ccc3n2)CC1,649 s
5,O=C1CCC(CCNS(=O)(=O)c2cc(Cl)ccc2Cl)CCN1CC1CC1 (centres undefined),897 s
6,CCc1nc2ccc(-c3noc(-c4ccc(C#N)cc4)n3)cc2n1CC,716 s
7,CCCCNC(=O)C1CCN(c2cnn(Cc3ccccc3)c(=O)c2)CC1,752 s
8,O=C(NCC1CCOCC1)c1ccccc1Br,671 s
9,CCOC(=O)c1ccc(Nc2ncccc2S(N)(=O)=O)cc1,841 s
10,Cc1cccc(-c2noc(Cn3ccn(Cc4ccc(Cl)cc4)c(=O)c3=O)n2)c1,960 s
11,Cc1ccc(-c2noc(Cn3ccnc3C)n2)cc1,629 s
12,O=C(Cn1nc(N2CCCC2)c2ccccc2c1=O)Nc1ccc2c(c1)OCO2,854 s
13,Cc1ccc(N2C(=O)C3N=NN(Cc4nc(-c5ccc(OC(C)C)cc5)no4)C3C2=O)cc1F (centres undefined),1140 s
14,COc1cc2c(CCNC(C)=O)c[nH]c2cc1Cl,754 s
15,CC(=O)N1CCCc2cc(S(=O)(=O)CCC(=O)Nc3ccc(Br)cc3C)ccc21,829 s
16,Cc1nc(-c2ccc(N3CCN(C(=O)c4nn(C)c5ccccc45)CC3)nc2)sc1C,966 s
17,COc1ccc(NC(=O)CCc2c(C)nn(-c3cc(N(C)C)ncn3)c2C)cc1Cl,822 s
18,CCn1nc(C)cc1C(=O)N1CCNC(=O)C1(C)C,568 s
19,COC(=O)c1ccc2c(=O)n(-c3cc(OC)cc(OC)c3)c(N3CCCCCC3)nc2c1,1220 s

# The remaining lines, values ahead:
row,RP-LC retention time,SMILES
1,681 s,COc1ccc(NC(=O)Cn2cnc3nc(N4CCC(C(=O)NC5CC5)CC4)sc3c2=O)cc1
2,720 s,O=c1ccc(-c2ccc3c(c2)OCO3)nn1CCc1nc(-c2cccnc2)no1
3,1250 s,CC(C)(C)c1cc(C(=O)Nc2ccccc2)nc2ccnn12
4,678 s,CCCCN1CCN(S(=O)(=O)c2ccc(-c3nnc(C4CCCC4)o3)o2)CC1
5,940 s,Cc1sc(NC(=O)C2CCCCC2)nc1-c1ccc2c(c1)NC(=O)C(C)O2 (centres undefined)
6,813 s,O=C(NCc1ccc(F)cc1)c1ccc2c(c1)CCN2C(=O)C1CC1
7,676 s,COc1cccc(Nc2nnc(CC(=O)N3CCSCC3)s2)c1
8,736 s,CCc1cccc(NC(=O)Cc2nnc(-c3cnccn3)o2)c1
9,713 s,CCC1CCCCN1C(=O)c1cnc2nc(C)ccc2c1Nc1cccc(SC)c1 (centres undefined)
10,559 s,CCN(CC)CCCNC(=O)C(C)n1c2ccccc2c2cnn(C)c(=O)c21 (centres undefined)
11,829 s,O=C(C1=CN(c2cc(F)cc(F)c2)c2cc(F)ccc2S1(=O)=O)N1CCCC1
12,753 s,CCNC(=O)c1nnc(-c2ccc(S(=O)(=O)N3CCCC3)cc2)o1
13,772 s,COc1cc(CN2CC(Oc3ccc(-c4noc(C5CC5)n4)cc3)C2)cc(OC)c1
14,632 s,CCNc1cc(C)nc(N2CCN(C(=O)C(C)(C)C)CC2)n1
15,952 s,O=C(c1cn(-c2cc(N3CCSCC3)ncn2)cn1)N1CCc2ccccc21
16,967 s,CCOC(=O)N1CCN(c2ccc(C(F)(F)F)cc2[N+](=O)[O-])CC1
17,813 s,c1cncc(CN2CC(Oc3ccc(-c4noc(-c5ccncc5)n4)cc3)C2)c1
18,916 s,COc1cc(-c2noc(Cc3nnc(-c4ccc(F)cc4)o3)n2)cc(OC)c1OC
19,905 s,CCCCC(=O)NC1=C(C(=O)OC)SCC1
20,775 s,COc1ccc(NC(=O)Cn2nc3nc(N4CCCC(C)C4)ccn3c2=O)cc1F (centres undefined)
21,1110 s,CCc1ccc(-c2nc(C3CC(=O)N(c4ccc(C)cc4)C3)no2)cc1 (centres undefined)
22,810 s,O=C(c1cn(-c2cc(-c3nc(C4CC4)no3)ccn2)cn1)N1CCCCC1
23,555 s,CN1CCN(CCNC(=O)C2CCN(c3nc4cccnc4s3)CC2)CC1
24,968 s,CCOc1cccc(C2c3[nH]c4ccccc4c3CCN2C(=O)c2cccnc2)c1 (centres undefined)
25,622 s,CCCCN(C)C(=O)c1cc(NC(=O)C(C)(C)C)cnc1N1CCNCC1

row,RP-LC retention time,SMILES
1,734 s,O=C(Nc1cccc(Cl)c1)Nc1cccc(-c2ccc3nncn3n2)c1
2,727 s,CCN1CCn2cc(S(=O)(=O)Nc3ccc(F)cc3F)cc2C1=O
3,766 s,CC(=O)Nc1ccc(-c2noc(C3CCCN(C(=O)c4ccsc4)C3)n2)cc1 (centres undefined)
4,796 s,COc1ccccc1OCC(=O)NCCCS(=O)(=O)N1CCN(c2ccccc2)CC1
5,893 s,Cc1ccc(CC(=O)NC2CCN(c3cc(C)cc(C)c3)C2=O)cc1 (centres undefined)
6,632 s,COc1cccc(-n2c(N3CCCC(C(=O)NCCN4CCCCC4)C3)nc3ccsc3c2=O)c1 (centres undefined)
7,617 s,O=C(CSc1ccc(N2CCCC(C(=O)NC3CC3)C2)nn1)Nc1cc(F)ccc1F (centres undefined)
8,650 s,CC(=O)Nc1ccc(CCc2nc3ccc(C(=O)NC4CCCCCC4)cc3[nH]2)cc1
9,668 s,COC(=O)CCN(C(=O)c1ccc(OC(C)=O)cc1)c1ccccn1
10,784 s,CCOc1ccc(CNC(=O)C2CCCN(c3nn4c(=O)c5c(nc4s3)CCCC5)C2)cc1 (centres undefined)
11,711 s,CCc1ccccc1NC(=O)NCC(c1cccnc1)c1cn(C)c2ccccc12 (centres undefined)
12,760 s,O=C1CCCc2cc(S(=O)(=O)N3CCC(C(=O)NCc4ccccc4Cl)CC3)ccc2N1
13,1040 s,Cn1cc(C(=O)Nc2ccc3c(c2)CCC3)c(S(=O)(=O)N2CCSCC2)n1
14,1050 s,CCC(C)NC(=O)c1cnn(-c2ccc(-c3nc(C(C)(C)C)no3)cn2)c1C (centres undefined)
15,928 s,CC(C)n1cc(S(=O)(=O)NCc2cccc(Cl)c2)c2cccnc21
16,692 s,CCCNC(=O)c1ncn2c1C(=O)N(C1CC1)C(C)(C(=O)NCc1ccc(F)cc1)C2 (centres undefined)
17,920 s,COc1ccccc1-c1noc(C2CCCN2C(=O)Nc2ccc(Cl)cc2)n1 (centres undefined)
18,795 s,COc1ccc(CNC(=O)C2CCN(S(=O)(=O)c3ccc4c(c3)sc(=O)n4C)CC2)cc1
19,968 s,COC(=O)c1ccc(C(=O)OC)c(NS(=O)(=O)CCOc2ccccc2)c1
20,833 s,Cc1nc(-c2noc(-c3ccncc3)n2)cn1CC(=O)Nc1cccc(F)c1
21,623 s,CCC(C)NC(=O)c1cc(C)[nH]n1 (centres undefined)
22,1100 s,COc1ccc(-c2cc(-c3ccccc3)c(-c3ccccc3)nn2)cc1
23,831 s,O=C(Cn1cc(C(=O)C2CC2)c2ccccc21)NCc1ccc2c(c1)OCCCO2
24,827 s,COc1ccc(OC)c(NC(=O)CCc2c(C)nn(-c3cc(N4CCCC4)ncn3)c2C)c1
25,646 s,COCCCNC(=O)c1ccc(-c2ccc(N3CCSCC3)nc2)cc1
